The assay has as its target alkaline phosphatase. The assay is described as follows: Enzyme inhibition assay on microfluidic disc (alkaline phosphatase / PNPP, reflectance at 430 nm). Type of assay: biochemical. As to conditions: end-point measurement 2 minutes after fluid pumped into detection chambers; dose-response fitted to Langmuir isotherm; substrate PNPP 0.5 mM; alkaline phosphatase 1 mg/mL; 0.1M glycine, 0.5 mM MgCl2; read-out: inhibition constant. On the procedure: The platform shown in FIGS. 1 through 6 was used to perform 96 simultaneous enzyme inhibition assays as model homogeneous assays. In an enzyme inhibition assay, the effect of a compound present in a first fluid (“A”) upon the capacity of an enzyme present in a second fluid (fluid “B”) to catalyze a reaction, typically of a substrate in a third fluid (“C”) is determined. The reaction was chosen to give a change in a readily-measured parameter of the fluid, such as its optical density, or to produce a fluorescent moiety. When no inhibitor was present in fluid A, mixing solution A with enzyme solution B had no effect: enzyme activity detected in this assay was the maximum detected and provided the largest change in the measured parameter. However, if an inhibitor was present in fluid A, mixing fluid A with fluid B resulted, after a sufficient time in a chemical reaction or other change induced by the inhibitor in most or all of the enzyme molecules, rendering them incapable of catalyzing the desired reaction. If this solution was mixed with the substrate solution, little or no change in the measured parameter was seen.
The system chosen to model homogeneous assays consisted of theophylline as inhibitor, alkaline phosphatase as the enzyme, and p-nitrophenol phosphate (PNPP) as the substrate. […]

In the case of `Cn1c(=O)c2[nH]cnc2n(C)c1=O` [theophylline], the Ki was determined as 9.7 ± 0.9 mM.

For the origin of these results see US6582662B1, “Devices and methods for the performance of miniaturized homogeneous assays” (Tecan Trading AG, priority 1999, dated 2003).
